Measurements as given in PubChem BioAssay (NCI).
“And” between values parts separate entries of the source, which are not always exact repeats. Equal values may be shown once.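 Tested at 5 concentrations; 48 h exposure; 96-well plates; endpoints linearly interpolated, else capped at highest concentration. Abbreviation: GI50, concentration required for 50% inhibition of growth. The concentration for full growth arrest is given as TGI.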

Tests used:
Experiment in all cases: inhibition of tumour cell growth, NCI panel, 48 h
SK-MEL-5 melanoma = test system: SK-MEL-5 melanoma
SF-268 CNS = test system: SF-268 CNS
HOP-92 NSCLC = test system: HOP-92 NSCLC
SR leukemia = test system: SR leukemia
NCI-H460 lung = test system: NCI-H460 lung
NCI-H226 lung = test system: NCI-H226 lung
TK-10 renal = test system: TK-10 renal
CAKI-1 renal = test system: CAKI-1 renal
LOX IMVI melanoma = test system: LOX IMVI melanoma
CCRF-CEM leukemia = test system: CCRF-CEM leukemia

Structure (SMILES) | GI50 (SK-MEL-5 melanoma) | TGI (SK-MEL-5 melanoma) | GI50 (SF-268 CNS) | TGI (SF-268 CNS) | GI50 (HOP-92 NSCLC) | TGI (HOP-92 NSCLC) | GI50 (SR leukemia) | TGI (SR leukemia) | GI50 (NCI-H460 lung) | TGI (NCI-H460 lung) | GI50 (NCI-H226 lung) | TGI (NCI-H226 lung) | GI50 (TK-10 renal) | TGI (TK-10 renal) | GI50 (CAKI-1 renal) | TGI (CAKI-1 renal) | GI50 (LOX IMVI melanoma) | TGI (LOX IMVI melanoma) | GI50 (CCRF-CEM leukemia) | TGI (CCRF-CEM leukemia)
CCSc1nc(N)c2cn[nH]c2n1 | 18.5 µM | 43.6 µM | 25.3 µM | 74.1 µM | 1.37 µM | 93.3 µM | 7.63 µM | 39.6 µM | 35.1 µM | > 100 µM | 16.9 µM | 57.1 µM | 7.54 µM | 34.3 µM | 22.3 µM | 76 µM | 30.9 µM | > 100 µM | – | –
OC(CN1CC1)C(O)CN1CC1 (configuration not stated) | > 50 µg/mL | > 50 µg/mL | > 50 µg/mL | > 50 µg/mL | > 50 µg/mL | > 50 µg/mL | > 50 µg/mL | > 50 µg/mL | > 50 µg/mL | > 50 µg/mL | > 50 µg/mL | > 50 µg/mL | > 50 µg/mL | > 50 µg/mL | > 50 µg/mL | > 50 µg/mL | > 50 µg/mL | > 50 µg/mL | > 50 µg/mL | > 50 µg/mL
CCC(=C(c1ccc(OCCCN(C)C)cc1)c1ccc(OCCCN(C)C)cc1)c1ccc(Cl)cc1 | 2.02 µM | 4.37 µM | 1.04 µM | 2.72 µM | 0.945 µM | 3.42 µM | 0.288 µM | 0.716 µM | 0.457 µM | 1.23 µM | 2.65 µM | 5.57 µM | 3.26 µM | 6.01 µM | 0.56 µM | 2.19 µM | 0.287 µM | 0.541 µM | 0.392 µM | 1.13 µM
COc1ccccc1/C=C/C(=O)/C=C/c1ccccc1O | 1.46 µM | 2.78 µM | 1.34 µM | 6.13 µM | 1.78 µM | 6.08 µM | 0.39 µM | > 100 µM | 1.67 µM | 4.39 µM | 1.71 µM | 4.12 µM | 2.72 µM | 5.74 µM | 1.79 µM | 5.53 µM | 0.724 µM | 2.01 µM | 0.2 µM | 0.544 µM
Cc1ccc(S(=O)(=O)N/N=C(\c2nc3ccc([N+](=O)[O-])cc3[nH]c2=O)C(O)c2ccccc2Cl)cc1 (configuration not stated) | – | > 100 µM | – | > 100 µM | – | > 100 µM | – | > 100 µM | – | > 100 µM | – | > 100 µM | – | > 100 µM | – | > 100 µM | – | > 100 µM | – | > 100 µM
COc1cccc(/C=C2\CCC(C)(CN(C)C)C2=O)c1 (configuration not stated) | – | > 100 µM | – | > 100 µM | – | > 100 µM | – | > 100 µM | – | > 100 µM | – | > 100 µM | – | > 100 µM | – | > 100 µM | – | > 100 µM | – | –
Cn1c([N+](=O)[O-])cnc1/C=C1\Oc2cc(Cl)ccc2C1=O | 0.289 µM | 1.22 µM | 0.371 µM | 2.85 µM | 1.32 µM | 5.14 µM | 0.0393 µM | 0.344 µM | 0.297 µM | 3.4 µM | 2.05 µM | 8.41 µM | 1.33 µM | 4.81 µM | 0.296 µM | 1.18 µM | 0.2 µM | 0.553 µM | 0.148 µM | 0.754 µM
CCN(CC)CCNC(=O)c1c(C)[nH]c(/C=C2\C(=O)Nc3ccc(F)cc32)c1C | 1.66 µM and 2.88 µM and 1.5 µM | 4.5 µM and 5.62 µM and 2.92 µM | > 10 µM and 2.73 µM and 4.57 µM | > 10 µM and 6.09 µM and 16.9 µM | 0.831 µM and 0.439 µM | 9.01 µM and 3.05 µM | 1.97 µM and 4.56 µM and 1.27 µM | 5.11 µM and 14.2 µM and 3.74 µM | 2 µM and 2.19 µM | > 10 µM and 5.78 µM and 13.1 µM | 5.22 µM and 5.72 µM and 8.46 µM | > 10 µM and 20 µM and 23.4 µM | 2.78 µM and 2.01 µM and 5.52 µM | > 10 µM and 5.81 µM and 20.9 µM | 1.07 µM and 1.04 µM and 0.794 µM | > 10 µM and 20 µM and 6.77 µM | 1.29 µM and 2.29 µM and 1.32 µM | 2.92 µM and 5.01 µM and 3 µM | 5.62 µM and 6.48 µM and 1.89 µM | > 10 µM and 20 µM and 8.85 µM
C=CCSc1nc2ccccc2c(=O)n1Cc1ccco1 | – | > 100 µM | – | > 100 µM | – | > 100 µM | – | > 100 µM | – | > 100 µM | – | > 100 µM | – | > 100 µM | – | > 100 µM | – | > 100 µM | – | –
CCOC(=O)/C(=C/c1cccc(OC)c1)N(CC)CC | – | > 100 µM | – | > 100 µM | – | > 100 µM | – | > 100 µM | – | – | – | > 100 µM | – | > 100 µM | – | > 100 µM | – | > 100 µM | – | > 100 µM
NC(=O)/C=C/C(=O)O | – | > 5000 µM | – | > 5000 µM | – | > 5000 µM | – | > 5000 µM | – | > 5000 µM | – | > 5000 µM | – | > 5000 µM | – | – | – | > 5000 µM | – | > 5000 µM
C=CCO/N=C/c1cc(NC(=S)c2ccoc2C)ccc1Cl | – | 27.6 µM | – | 36 µM | – | 42.3 µM | – | 30.9 µM | – | – | – | 41.3 µM | – | 42.2 µM | – | 23.6 µM | – | 44.5 µM | – | > 100 µM
COCCOCCOCc1n(Cc2ccc3ccccc3n2)c2ccccc2[n+]1Cc1ccc2ccccc2c1 | 0.357 µM | 1.16 µM | 0.464 µM | 1.85 µM | 0.207 µM | 0.718 µM | 0.273 µM | 1.07 µM | 0.424 µM | 1.56 µM | 0.875 µM | 4.83 µM | 1.04 µM | 2.42 µM | – | – | 0.333 µM | 1.24 µM | 0.532 µM | 2.45 µM
CCCCCCCCCCCCCCCCCCNC(=O)[C@H]1CSC(c2cccs2)N1 (some centres not stated) | – | – | 1.11 µM | 2.34 µM | 2.38 µM | 14.2 µM | 0.94 µM | 2.62 µM | 0.754 µM | 1.69 µM | 1.05 µM | 2.01 µM | 1.79 µM | > 50 µM | 1.03 µM | 2.09 µM | 0.834 µM | 2.02 µM | 0.372 µM | 2.03 µM
Cc1cc(Nc2nc(SCc3ccc(C(=O)Nc4ccc(F)cc4N)cc3)nn3cccc23)n[nH]1 | 0.334 µM | 2.43 µM | 1.12 µM | > 100 µM | 3.68 µM | 24.3 µM | 0.068 µM | 63.1 µM | 0.395 µM | > 100 µM | 2.7 µM | 20.5 µM | 1.21 µM | 7.33 µM | – | – | 0.665 µM | > 100 µM | 0.411 µM | > 100 µM
